Assay results from ChEMBL document CHEMBL1201862, “PubChem BioAssay data set” (2004).
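Tested at 5 concentrations; 48 h exposure; 96-well plates; endpoints linearly interpolated, else capped at highest concentration. Abbreviation: GI50, concentration required for 50% inhibition of growth.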 Calls of active or inactive are those of the source. Cut-off read from the data, not from the text of the source: active = GI50 up to about 1.1 µM and inactive = higher.

Experiments:
Test in all cases: NCI tumour cell line growth inhibition, 48 h
786-0 = tested on: 786-0
A498 = tested on: A498
A549 = tested on: A549
ACHN = tested on: ACHN
CAKI-1 = tested on: CAKI-1
CCRF-CEM = tested on: CCRF-CEM
COLO 205 = tested on: COLO 205
DLD-1 = tested on: DLD-1
DMS-114 = tested on: DMS-114
DMS-273 = tested on: DMS-273
EKVX = tested on: EKVX
HCC 2998 = tested on: HCC 2998
HCT-116 = tested on: HCT-116
HCT-15 = tested on: HCT-15
HL-60 = tested on: HL-60
HOP-18 = tested on: HOP-18
HOP-62 = tested on: HOP-62
HOP-92 = tested on: HOP-92
HT-29 = tested on: HT-29
IGROV-1 = tested on: IGROV-1
K562 = tested on: K562
KM-20L2 = tested on: KM-20L2
KM12 = tested on: KM12
LOX IMVI = tested on: LOX IMVI
LXFL 529 = tested on: LXFL 529
M14 = tested on: M14
M19-MEL = tested on: M19-MEL
MOLT-4 = tested on: MOLT-4
Malme-3M = tested on: Malme-3M
NCI-H226 = tested on: NCI-H226
NCI-H23 = tested on: NCI-H23
NCI-H460 = tested on: NCI-H460
NCI-H522 = tested on: NCI-H522
OVCAR-3 = tested on: OVCAR-3
OVCAR-4 = tested on: OVCAR-4
OVCAR-5 = tested on: OVCAR-5
OVCAR-8 = tested on: OVCAR-8
RPMI-8226 = tested on: RPMI-8226
RXF 393 = tested on: RXF 393
SF-268 = tested on: SF-268
SF-295 = tested on: SF-295
SF-539 = tested on: SF-539
SK-MEL-28 = tested on: SK-MEL-28
SK-MEL-2 = tested on: SK-MEL-2
SK-MEL-5 = tested on: SK-MEL-5
SK-OV-3 = tested on: SK-OV-3
SN12C = tested on: SN12C
SNB-19 = tested on: SNB-19
SNB-75 = tested on: SNB-75
SNB-78 = tested on: SNB-78
SR = tested on: SR
SW-620 = tested on: SW-620
TK-10 = tested on: TK-10
U-251 = tested on: U-251
UACC-257 = tested on: UACC-257
UACC-62 = tested on: UACC-62
UO-31 = tested on: UO-31
XF498 = tested on: XF498
BT-549 = tested on: BT-549
DU-145 = tested on: DU-145
Hs-578T = tested on: Hs-578T
MCF7 = tested on: MCF7
MDA-MB-231 = tested on: MDA-MB-231
MDA-MB-435 = tested on: MDA-MB-435
MDA-N = tested on: MDA-N
PC-3 = tested on: PC-3
T47D = tested on: T47D
NCI/ADR-RES = tested on: NCI/ADR-RES

COc1cc2c(oc(=O)c3cc4ccoc4c(OC)c32)c2cccc(O)c12
GI50 (786-0): > 100 µM (inactive)
GI50 (A498): > 100 µM (inactive)
GI50 (A549): > 100 µM (inactive)
GI50 (ACHN): > 100 µM (inactive)
GI50 (CAKI-1): > 100 µM (inactive)
GI50 (CCRF-CEM): > 100 µM (inactive)
GI50 (COLO 205): > 100 µM (inactive)
GI50 (DLD-1): > 100 µM (inactive)
GI50 (DMS-114): > 100 µM (inactive)
GI50 (DMS-273): > 100 µM (inactive)
GI50 (EKVX): > 100 µM (inactive)
GI50 (HCC 2998): > 100 µM (inactive)
GI50 (HCT-116): > 100 µM (inactive)
GI50 (HCT-15): > 100 µM
GI50 (HL-60): > 100 µM (inactive)
GI50 (HOP-18): > 100 µM (inactive)
GI50 (HOP-62): > 100 µM (inactive)
GI50 (HOP-92): > 100 µM (inactive)
GI50 (HT-29): > 100 µM (inactive)
GI50 (IGROV-1): > 100 µM (inactive)
GI50 (K562): > 100 µM (inactive)
GI50 (KM-20L2): > 100 µM (inactive)
GI50 (KM12): > 100 µM (inactive)
GI50 (LOX IMVI): > 100 µM (inactive)
GI50 (LXFL 529): > 100 µM (inactive)
GI50 (M14): > 100 µM (inactive)
GI50 (M19-MEL): > 100 µM (inactive)
GI50 (MOLT-4): > 100 µM (inactive)
GI50 (Malme-3M): > 100 µM (inactive)
GI50 (NCI-H226): > 100 µM (inactive)
GI50 (NCI-H23): > 100 µM (inactive)
GI50 (NCI-H460): > 100 µM (inactive)
GI50 (NCI-H522): > 100 µM (inactive)
GI50 (OVCAR-3): > 100 µM (inactive)
GI50 (OVCAR-4): > 100 µM (inactive)
GI50 (OVCAR-5): > 100 µM (inactive)
GI50 (OVCAR-8): > 100 µM (inactive)
GI50 (RPMI-8226): > 100 µM (inactive)
GI50 (RXF 393): > 100 µM (inactive)
GI50 (SF-268): > 100 µM (inactive)
GI50 (SF-295): > 100 µM (inactive)
GI50 (SF-539): > 100 µM (inactive)
GI50 (SK-MEL-28): > 100 µM (inactive)
GI50 (SK-MEL-2): > 100 µM (inactive)
GI50 (SK-MEL-5): > 100 µM (inactive)
GI50 (SK-OV-3): > 100 µM (inactive)
GI50 (SN12C): > 100 µM (inactive)
GI50 (SNB-19): > 100 µM (inactive)
GI50 (SNB-75): 60.3 µM (inactive)
GI50 (SNB-78): > 100 µM (inactive)
GI50 (SR): > 100 µM (inactive)
GI50 (SW-620): > 100 µM (inactive)
GI50 (TK-10): > 100 µM (inactive)
GI50 (U-251): > 100 µM (inactive)
GI50 (UACC-257): > 100 µM (inactive)
GI50 (UACC-62): > 100 µM (inactive)
GI50 (UO-31): > 100 µM (inactive)
GI50 (XF498): > 100 µM (inactive)

CN(C)C[C@H]1CC[C@@H](CN(C)C)C1=O
GI50 (786-0): 5.68 µM (inactive)
GI50 (A498): 49.2 µM (inactive)
GI50 (A549): > 50 µM (inactive)
GI50 (ACHN): 8.32 µM (inactive)
GI50 (BT-549): 7.46 µM (inactive)
GI50 (CAKI-1): 8.79 µM (inactive)
GI50 (COLO 205): 3.67 µM (inactive)
GI50 (DLD-1): 3.94 µM (inactive)
GI50 (DMS-114): 8.47 µM (inactive)
GI50 (DMS-273): 8.71 µM (inactive)
GI50 (DU-145): 24.3 µM (inactive)
GI50 (EKVX): 16.7 µM (inactive)
GI50 (HCC 2998): > 29.6 µM (inactive)
GI50 (HCT-116): 8.32 µM (inactive)
GI50 (HCT-15): 4.65 µM
GI50 (HL-60): 1.29 µM (inactive)
GI50 (HOP-18): 8.02 µM (inactive)
GI50 (HOP-62): > 50 µM (inactive)
GI50 (HOP-92): 8.47 µM (inactive)
GI50 (HT-29): 9.84 µM (inactive)
GI50 (Hs-578T): 18.7 µM (inactive)
GI50 (IGROV-1): 15.2 µM (inactive)
GI50 (K562): 0.564 µM (active)
GI50 (KM-20L2): 11.2 µM (inactive)
GI50 (KM12): 16.9 µM (inactive)
GI50 (LOX IMVI): 7.14 µM (inactive)
GI50 (LXFL 529): 6.18 µM (inactive)
GI50 (M14): 8.77 µM (inactive)
GI50 (M19-MEL): 8.83 µM (inactive)
GI50 (MCF7): 1.18 µM (inactive)
GI50 (MDA-MB-231): 9.86 µM (inactive)
GI50 (MDA-MB-435): 9.66 µM (inactive)
GI50 (MDA-N): 8.55 µM (inactive)
GI50 (MOLT-4): 1.23 µM (inactive)
GI50 (Malme-3M): 3 µM (inactive)
GI50 (NCI-H226): 13.1 µM (inactive)
GI50 (NCI-H23): 9.4 µM (inactive)
GI50 (NCI-H460): 19.5 µM (inactive)
GI50 (NCI-H522): 0.453 µM (active)
GI50 (OVCAR-3): 9.06 µM (inactive)
GI50 (OVCAR-4): 9.23 µM (inactive)
GI50 (OVCAR-5): 8.79 µM (inactive)
GI50 (OVCAR-8): 9.08 µM (inactive)
GI50 (PC-3): 8.63 µM (inactive)
GI50 (RPMI-8226): 0.535 µM (active)
GI50 (RXF 393): 9.29 µM (inactive)
GI50 (SF-268): 11.2 µM (inactive)
GI50 (SF-295): 48.9 µM (inactive)
GI50 (SF-539): 10 µM (inactive)
GI50 (SK-MEL-28): 5.15 µM (inactive)
GI50 (SK-MEL-2): 7.73 µM (inactive)
GI50 (SK-MEL-5): 11.6 µM (inactive)
GI50 (SK-OV-3): > 50 µM (inactive)
GI50 (SN12C): 8.59 µM (inactive)
GI50 (SNB-19): > 50 µM (inactive)
GI50 (SNB-75): 14.5 µM (inactive)
GI50 (SNB-78): 10.3 µM (inactive)
GI50 (SR): 2.21 µM (inactive)
GI50 (SW-620): 2.11 µM (inactive)
GI50 (T47D): 7.03 µM (inactive)
GI50 (TK-10): 8.11 µM (inactive)
GI50 (U-251): 28.7 µM (inactive)
GI50 (UACC-257): 8.47 µM (inactive)
GI50 (UACC-62): 9.08 µM (inactive)
GI50 (UO-31): 14.9 µM (inactive)
GI50 (XF498): 8.28 µM (inactive)

Nc1ccc(S(=O)(=O)Nc2cnc3c(Cl)cccc3n2)cc1 [CHLORSULFAQUINOXALINE]
GI50 (786-0): 86.3 µM (inactive)
GI50 (A498): 131 µM (inactive)
GI50 (A549): 117 µM (inactive)
GI50 (ACHN): 107 µM (inactive)
GI50 (BT-549): > 60.5 µM (inactive)
GI50 (CAKI-1): 56.2 µM (inactive)
GI50 (CCRF-CEM): 52.6 µM (inactive)
GI50 (COLO 205): 23.9 µM (inactive)
GI50 (DLD-1): 93.1 µM (inactive)
GI50 (DMS-114): 2.94 µM (inactive)
GI50 (DMS-273): 152 µM (inactive)
GI50 (DU-145): 175 µM (inactive)
GI50 (EKVX): 222 µM (inactive)
GI50 (HCC 2998): 99.5 µM (inactive)
GI50 (HCT-116): 7.28 µM (inactive)
GI50 (HCT-15): 53 µM
GI50 (HL-60): 167 µM (inactive)
GI50 (HOP-18): 189 µM (inactive)
GI50 (HOP-62): 78.9 µM (inactive)
GI50 (HOP-92): 71.3 µM (inactive)
GI50 (HT-29): 248 µM (inactive)
GI50 (Hs-578T): 63.5 µM (inactive)
GI50 (IGROV-1): 2.58 µM (inactive)
GI50 (K562): 23.2 µM (inactive)
GI50 (KM-20L2): 292 µM (inactive)
GI50 (KM12): 147 µM (inactive)
GI50 (LOX IMVI): 84.9 µM (inactive)
GI50 (LXFL 529): 31.4 µM (inactive)
GI50 (M14): 274 µM (inactive)
GI50 (M19-MEL): 232 µM (inactive)
GI50 (MCF7): 101 µM (inactive)
GI50 (MDA-MB-231): > 69.7 µM (inactive)
GI50 (MDA-MB-435): > 70 µM (inactive)
GI50 (MDA-N): 24.3 µM (inactive)
GI50 (MOLT-4): 75.2 µM (inactive)
GI50 (Malme-3M): 164 µM (inactive)
GI50 (NCI-H226): 163 µM (inactive)
GI50 (NCI-H23): 163 µM (inactive)
GI50 (NCI-H460): 129 µM (inactive)
GI50 (NCI-H522): 29 µM (inactive)
GI50 (NCI/ADR-RES): 47.5 µM (inactive)
GI50 (OVCAR-3): 167 µM (inactive)
GI50 (OVCAR-4): 125 µM (inactive)
GI50 (OVCAR-5): 192 µM (inactive)
GI50 (OVCAR-8): 144 µM (inactive)
GI50 (PC-3): 86.1 µM (inactive)
GI50 (RPMI-8226): 129 µM (inactive)
GI50 (RXF 393): 82.2 µM (inactive)
GI50 (SF-268): 197 µM (inactive)
GI50 (SF-295): 31.4 µM (inactive)
GI50 (SF-539): 126 µM (inactive)
GI50 (SK-MEL-28): 151 µM (inactive)
GI50 (SK-MEL-2): 226 µM (inactive)
GI50 (SK-MEL-5): 144 µM (inactive)
GI50 (SK-OV-3): > 33 µM (inactive)
GI50 (SN12C): 94.4 µM (inactive)
GI50 (SNB-19): 92.3 µM (inactive)
GI50 (SNB-75): 181 µM (inactive)
GI50 (SNB-78): 151 µM (inactive)
GI50 (SR): 56.4 µM (inactive)
GI50 (SW-620): 26.1 µM (inactive)
GI50 (T47D): 96.2 µM (inactive)
GI50 (TK-10): 41.6 µM (inactive)
GI50 (U-251): 207 µM (inactive)
GI50 (UACC-257): 344 µM (inactive)
GI50 (UACC-62): 36.7 µM (inactive)
GI50 (UO-31): 151 µM (inactive)
GI50 (XF498): 275 µM (inactive)
